The values that follow come from PMC2924751 (Chemical research in toxicology, 2010).

One data set addresses P450 3A4 (Homo sapiens, UniProt P08684). Kind of data set: in vitro.
The target in a further data set is P450 3A5 (Homo sapiens, UniProt P20815). In words: in vitro.
Chain of P450 3A5 (P20815 whole entry): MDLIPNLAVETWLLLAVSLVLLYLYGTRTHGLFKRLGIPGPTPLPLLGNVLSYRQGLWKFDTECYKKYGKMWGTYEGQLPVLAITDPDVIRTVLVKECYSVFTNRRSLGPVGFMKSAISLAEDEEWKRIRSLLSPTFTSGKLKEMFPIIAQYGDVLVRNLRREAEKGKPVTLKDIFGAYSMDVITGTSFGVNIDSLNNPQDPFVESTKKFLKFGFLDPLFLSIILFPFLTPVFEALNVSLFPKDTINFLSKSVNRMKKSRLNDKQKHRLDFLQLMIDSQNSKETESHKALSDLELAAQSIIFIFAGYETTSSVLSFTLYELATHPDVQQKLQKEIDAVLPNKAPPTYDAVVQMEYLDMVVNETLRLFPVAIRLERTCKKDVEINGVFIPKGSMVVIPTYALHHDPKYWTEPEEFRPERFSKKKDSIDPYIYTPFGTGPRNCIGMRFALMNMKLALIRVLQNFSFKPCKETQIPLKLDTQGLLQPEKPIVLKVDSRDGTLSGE
Chain of P450 3A5 (P16435 2-677 partner): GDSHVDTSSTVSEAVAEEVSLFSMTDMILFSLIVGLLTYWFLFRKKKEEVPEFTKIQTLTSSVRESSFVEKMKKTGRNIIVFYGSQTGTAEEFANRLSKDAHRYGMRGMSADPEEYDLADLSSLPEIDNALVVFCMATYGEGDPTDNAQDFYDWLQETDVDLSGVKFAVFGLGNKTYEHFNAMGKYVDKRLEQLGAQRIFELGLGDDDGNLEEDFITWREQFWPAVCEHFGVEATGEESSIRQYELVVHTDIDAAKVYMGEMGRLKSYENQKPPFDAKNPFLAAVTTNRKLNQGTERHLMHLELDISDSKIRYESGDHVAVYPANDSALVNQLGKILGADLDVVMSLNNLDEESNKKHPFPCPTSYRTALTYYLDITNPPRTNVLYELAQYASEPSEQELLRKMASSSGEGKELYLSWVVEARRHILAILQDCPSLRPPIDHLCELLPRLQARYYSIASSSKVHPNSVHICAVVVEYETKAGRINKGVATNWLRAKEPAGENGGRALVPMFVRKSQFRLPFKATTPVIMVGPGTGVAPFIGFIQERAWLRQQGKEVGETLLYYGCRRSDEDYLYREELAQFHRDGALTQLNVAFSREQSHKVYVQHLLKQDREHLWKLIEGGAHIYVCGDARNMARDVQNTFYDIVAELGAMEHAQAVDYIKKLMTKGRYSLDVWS
Chain of P450 3A5 (P00167 2-134 partner): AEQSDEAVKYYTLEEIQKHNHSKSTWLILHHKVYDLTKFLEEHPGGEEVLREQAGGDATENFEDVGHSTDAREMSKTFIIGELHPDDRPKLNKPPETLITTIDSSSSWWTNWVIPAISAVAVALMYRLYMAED

Chain of P450 3A4 (P08684 2-503): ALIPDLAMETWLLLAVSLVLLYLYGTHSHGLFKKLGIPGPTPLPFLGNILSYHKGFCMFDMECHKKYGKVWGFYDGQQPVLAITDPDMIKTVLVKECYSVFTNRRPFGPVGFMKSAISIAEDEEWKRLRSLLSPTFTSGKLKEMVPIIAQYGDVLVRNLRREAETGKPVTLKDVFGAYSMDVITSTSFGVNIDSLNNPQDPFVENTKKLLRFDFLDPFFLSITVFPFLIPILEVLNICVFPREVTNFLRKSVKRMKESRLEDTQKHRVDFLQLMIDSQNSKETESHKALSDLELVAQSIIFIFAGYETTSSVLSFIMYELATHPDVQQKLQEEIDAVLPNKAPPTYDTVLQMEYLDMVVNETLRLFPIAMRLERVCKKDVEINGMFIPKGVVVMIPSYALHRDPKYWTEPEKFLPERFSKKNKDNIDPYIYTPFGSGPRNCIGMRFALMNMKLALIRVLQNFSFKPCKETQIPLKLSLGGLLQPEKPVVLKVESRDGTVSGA
Chain of P450 3A4 (P16435 2-677 partner): as the sequence (P16435 2-677 partner) above
Chain of P450 3A4 (P00167 2-134 partner): as the sequence (P00167 2-134 partner) above

For `CCC(=O)O[C@]1(C(=O)SCF)[C@H](C)C[C@H]2[C@@H]3C[C@H](F)C4=CC(=O)C=C[C@]4(C)[C@@]3(F)[C@@H](O)C[C@@]21C` [FLT, fluticasone propionate], the KI (inactivation) came out at 3.5 µM on P450 3A4 and 16 µM on P450 3A5.
